From patent US7834013B2, “Aminophenylcyclopropyl carboxylic acids and derivatives as agonists to GPR40” (GlaxoSmithKline LLC, priority 2003, dated 2010) come the findings set out here.

Counter-ions that a name gives are not always drawn.

The EC50 is the concentration at which the effect is half-maximal. Read a low EC50 as a more potent agent.

For this assay, the target named is T1, GPR40 (Homo sapiens, UniProt O14842).
T1 construct: expressed in transfected cells
T1 sequence (O14842 whole entry): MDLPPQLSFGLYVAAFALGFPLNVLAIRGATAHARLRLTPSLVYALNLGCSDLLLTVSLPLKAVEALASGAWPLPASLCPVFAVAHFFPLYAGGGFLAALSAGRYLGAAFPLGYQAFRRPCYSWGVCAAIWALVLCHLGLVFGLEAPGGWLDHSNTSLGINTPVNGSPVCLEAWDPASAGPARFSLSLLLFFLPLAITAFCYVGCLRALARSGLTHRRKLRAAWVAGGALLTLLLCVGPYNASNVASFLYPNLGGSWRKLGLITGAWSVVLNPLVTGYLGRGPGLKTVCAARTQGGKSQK
Nature of the assay: GPR40 SAR Primary Assay (Elk-1/Gal4-luc+ reporter, luciferase activity). In kind it is cell-based. As to conditions: stable GPR40 Elk-1/Gal4-luc+ CHO cell line, 5 hours incubation. As for the experimental part: An existing stable GPR40 Elk-1/Gal4-luc^+ CHO cell line generated by electroporation and functional cloning was used. Cells were maintained in a humidified incubator at 37° C./5% CO2 in complete media containing DMEM/F12 (Gibco, #11039-021), 5% FBS (Gibco, #16140-071) and 1% Glutamine (Gibco, #25030-081). Cell maintenance passages were made at 1:40 dilution every 3-4 days. Forty eight hours prior to assay, 15e6 cells were added to 200 ml of complete media then seeded into a 1200 cm^2-cell factory and returned to a humidified incubator at 37° C./5% CO2. 20 hours prior to assay, the growth media was removed and replaced with 200 ml of serum-free DMEM/F12 to quiesce background activity. At the time of assay, cells were harvested using non-enzymatic cell dissociation solution (Sigma, #C-5914), washed and counted. The 20 hour starve media was collected and used as condition media for cell assay plating. Cells were plated at a concentration of 10,000 cells/well in a total well volume of […] in black 96-well clear bottom polystyrene plates (CoStar, #3904). Test compounds were prepared as serial dilutions in 100% DMSO, then 1 ul was delivered to each well resulting in a final concentration of 1% DMSO. The plates were then returned to a humidified incubator at 37° C./5% CO2 for 5 hours. Following the incubation, the medium was replaced with 50 ul of a 1:1 mixture of SteadyGlo™ (Promega, #E2550) and dPBS containing 1 mM CaCl2 and 1 mM MgCl2. Plates were then sealed and subjected to dark adaptation at room temperature for 10 minutes. Luciferase activity was measured on a Packard TopCount™ microplate scintillation counter using 2 seconds per well count time.
Data analysis was performed using standard methods.
The Normalization Equation used was 100*(Unknown compound response−Background response)/(Agonist Max response−Background response).
The Curve Fit Function used was y=((Vmax*x^n)/(K^n+x^n))+Y2.
A percent max response and pEC50 were recorded for each compound. Although specific pEC50 values are given, these values should be considered exemplary. Those skilled in the art will appreciate the variability in performing and recording the biological activity assays that are herein described. The compounds of the present invention provide a pEC50 of at least 5.0.
Compound `Cc1nc(-c2ccc(C(F)(F)F)cc2)sc1CNc1ccc([C@@H]2C[C@H]2C(=O)NC2CCC2)cc1` (single isomer, unassigned) [Example 42, Enantiomerically Enriched (trans)-N-cyclobutyl-2-{4-[({4-methyl-2-[4-(trifluoromethyl)phenyl]-1,3-thiazol-5-yl}methyl)amino]phenyl}cyclopropanecarboxamide] gave a half-maximal effective concentration (EC50) of 7.94 nM.

With `Cc1nc(-c2ccc(C(F)(F)F)cc2)sc1CNc1ccc([C@@H]2C[C@H]2C(=O)NCc2ccncc2)cc1` (single isomer, unassigned) [Example 38, Enantiomerically Enriched (trans)-2-{4-[({4-methyl-2-[4-(trifluoromethyl)phenyl]-1,3-thiazol-5-yl}methyl)amino]phenyl}-N-(4-pyridinylmethyl)cyclopropanecarboxamide TFA Salt], the EC50 was 5.01 nM.

As for `Cc1nc(-c2ccc(C(F)(F)F)cc2)sc1CNc1ccc(C2CC2C(=O)O)cc1` (single isomer, unassigned; (+)) [Example 27, (+)-(Trans)-2-{4-[({4-methyl-2-[4-(trifluoromethyl)phenyl]-1,3-thiazol-5-yl}methyl)amino]phenyl}cyclopropanecarboxylic Acid], the EC50 was 3.98 nM.

Turning to `NC(=O)[C@@H]1C[C@H]1c1ccc(NCc2ccc(-c3ccccn3)cc2)cc1` (racemic) [Example 36, Racemic-(trans)-2-[4-({[4-(2-pyridinyl)phenyl]methyl}amino)phenyl]cyclopropanecarboxamide], a half-maximal response (EC50) required 251 nM.

Regarding `Nc1ccc(Oc2cccc(CNc3ccc([C@H]4C[C@@H]4C(=O)O)cc3)c2)cc1` (racemic) [Example 24, Racemic-(trans)-2-{4-[({3-[(4-aminophenyl)oxy]phenyl}methyl)amino]phenyl}cyclopropanecarboxylic Acid Trifluoroacetate], the EC50 is 200 nM.

`O=C(O)C1CC1c1ccc(NCc2cccc(Oc3ccc(Cl)cc3)c2)cc1` (racemic) [Example 6, Racemic-(trans)-2-{4-[({3-[(4-chlorophenyl)oxy]phenyl}methyl)ammonium]phenyl}-cyclopropanecarboxylic Acid Trifluoroacetate]: the response was half-maximal at 15.8 nM (EC50).

Compound `O=C(NCC1CC1)C1CC1c1ccc(NCc2cccc(Oc3ccccc3)c2)cc1` (stereo not drawn) [Example 54, Enantiomerically Enriched N-(cyclopropylmethyl)-2-{4-[(3-phenoxybenzyl)amino]phenyl}cyclopropanecarboxamide] had an EC50 of 20 nM.

As to `O=C(O)C1CC1c1ccc(NCc2cccc(OCc3ccccc3)c2)cc1` (racemic) [Example 11, Racemic-(trans)-2-{4-[({3-[(phenylmethyl)oxy]phenyl}methyl)ammonium]phenyl}-cyclopropanecarboxylic Acid Trifluoroacetate], the EC50 is 126 nM.

`O=C(O)[C@@H]1C[C@H]1c1ccc(NCc2ccc(-c3ccccc3)cc2)cc1` (racemic) [Example 2, Racemic-(trans)-2-{4-[(4-biphenylylmethyl)amino]phenyl}cyclopropanecarboxylic Acid]: a half-maximal effect (EC50) was put at 25.1 nM.

Consider `O=C(O)[C@@H]1C[C@H]1c1ccc(NCc2ccc(-c3ccc(C(F)(F)F)cc3)o2)cc1` (racemic) [Example 18, Racemic-(trans)-2-{4-[({5-[4-(trifluoromethyl)phenyl]-2-furanyl}methyl)amino]phenyl}cyclopropanecarboxylic Acid Trifluoroacetate], for which the response was half-maximal at 251 nM (EC50).

The compound `O=C(O)[C@H]1C[C@@H]1c1ccc(NCc2cccc(Oc3cc(Cl)cc(Cl)c3)c2)cc1` [Example 32, (+)-(trans)-2-{4-[({3-[(3,5-dichlorophenyl)oxy]phenyl}methyl)amino]phenyl}cyclopropanecarboxylic Acid trifluoroacetate] showed a half-maximal effective concentration (EC50) of 5.01 nM.

`CC(C)c1nc(-c2ccc(C(F)(F)F)cc2)sc1CNc1ccc([C@@H]2C[C@H]2C(=O)O)cc1` (racemic) [Example 14, Racemic-(trans)-2-{4-[({4-isopropyl-2-[4-(trifluoromethyl)phenyl]-1,3-thiazol-5-yl}methyl)amino]phenyl}cyclopropanecarboxylic Acid] showed a concentration giving a half-maximal response (EC50) of 15.8 nM.

As to `Cc1nc(-c2ccc(C(F)(F)F)cc2)sc1CNc1ccc(C2CC2C(=O)O)cc1` (single isomer, unassigned; (-)) [Example 29, (−)-(cis)-2-{4-[({4-methyl-2-[4-(trifluoromethyl)phenyl]-1,3-thiazol-5-yl}methyl)amino]phenyl}cyclopropanecarboxylic Acid], the response was half-maximal at 316 nM (EC50).

`O=C(O)C1CC1c1ccc(NCc2cccc(Oc3ccc(Cl)c(Cl)c3)c2)cc1` (single isomer, unassigned; (+)) [Example 28a, (+)-(Trans)-2-{4-[({3-[(3,4-dichlorophenyl)oxy]phenyl}methyl)amino]phenyl}cyclopropanecarboxylic Acid Trifluoroacetate] showed an EC50 of 3.16 nM.

The compound `O=C(O)[C@@H]1C[C@H]1c1ccc(NCc2cccc(Oc3ccccc3)c2)cc1` (single isomer, unassigned) [Example 25] gave an EC50 of 631 nM.

Consider `Cc1nc(-c2ccc(C(F)(F)F)cc2)sc1CNc1ccc([C@@H]2C[C@H]2C(N)=O)cc1` (racemic) [Example 43, Racemic-(trans)-2-{4-[({4-methyl-2-[4-(trifluoromethyl)phenyl]-1,3-thiazol-5-yl}methyl)amino]phenyl}cyclopropanecarboxamide], for which the EC50 was 20 nM.

Take `Cc1nc(-c2ccc(C(F)(F)F)cc2)sc1CNc1ccc([C@@H]2C[C@H]2C(=O)O)cc1` (racemic) [Example 13, Racemic-(trans)-2-{4-[({4-methyl-2-[4-(trifluoromethyl)phenyl]-1,3-thiazol-5-yl}methyl)amino]phenyl}cyclopropanecarboxylic Acid]: a half-maximal response (EC50) required 20 nM.

As for `Cc1nc(-c2ccc(C(F)(F)F)cc2)sc1CNc1ccc(C2CC2C(=O)N[C@@H](C)c2ccccc2)cc1` (stereo partly drawn) [Example 40, Enantiomerically Enriched (trans)-2-{4-[({4-methyl-2-[4-(trifluoromethyl)phenyl]-1,3-thiazol-5-yl}methyl)amino]phenyl}-N-[(1S)-1-phenylethyl]cyclopropanecarboxamide], the EC50 was 50.1 nM.

Consider `O=C(O)C1CC1c1ccc(NCc2cccc(Oc3ccc(Cl)c(Cl)c3)c2)cc1` (racemic) [Example 4, Racemic-(trans)-2-{4-[({3-[(3,4-dichlorophenyl)oxy]phenyl}methyl)ammonium]phenyl}-cyclopropanecarboxylic Acid Trifluoroacetate], for which the EC50 was 2 nM.

The compound `O=C(O)[C@H]1C[C@@H]1c1ccc(NCc2cccc(Oc3ccc([N+](=O)[O-])cc3)c2)cc1` (racemic) [Example 22, Racemic-(trans)-2-{4-[({3-[(4-nitrophenyl)oxy]phenyl}methyl)amino]phenyl}cyclopropanecarboxylic Acid Trifluoroacetate] gave an EC50 of 316 nM.

Turning to `CC(C)NC(=O)[C@@H]1C[C@H]1c1ccc(NCc2sc(-c3ccc(C(F)(F)F)cc3)nc2C(C)C)cc1` (racemic) [Example 52, Racemic-(trans)-N-isopropyl-2-{4-[({4-isopropyl-2-[4-(trifluoromethyl)phenyl]-1,3-thiazol-5-yl}methyl)amino]phenyl}cyclopropanecarboxamide], the EC50 is 15.8 nM.

The compound `O=C(NCc1ccc(C(F)(F)F)cc1)[C@@H]1C[C@H]1c1ccc(NCc2cccc(Oc3ccccc3)c2)cc1` (racemic) [Example 49, Racemic-(trans)-2-{4-[(3-phenoxybenzyl)amino]phenyl}-N-[4-(trifluoromethyl)benzyl]cyclopropanecarboxamide] showed a half-maximal effective concentration (EC50) of 31.6 nM.

In turn, `Cc1ccc(Oc2cccc(CNc3ccc([C@H]4C[C@@H]4C(=O)O)cc3)c2)cc1` [Example 34, (+)-(trans)-2-{4-[({3-[(4-methylphenyl)oxy]phenyl}methyl)amino]phenyl}cyclopropanecarboxylic Acid Trifluoroacetate] had an EC50 of 7.94 nM.

Compound `Cc1nc(-c2ccc(C(F)(F)F)cc2)sc1CNc1ccc([C@@H]2C[C@H]2C(=O)NO)cc1` (single isomer, unassigned) [Example 41, Enantiomerically Enriched (trans)-N-hydroxy-2-{4-[({4-methyl-2-[4-(trifluoromethyl)phenyl]-1,3-thiazol-5-yl}methyl)amino]phenyl}cyclopropanecarboxamide] gave an EC50 of 6.31 nM.

`O=C(NCC(F)(F)F)[C@@H]1C[C@H]1c1ccc(NCc2cccc(Oc3ccccc3)c2)cc1` (racemic) [Example 51, Racemic-(trans)-2-{4-[(3-phenoxybenzyl)amino]phenyl}-N-(2,2,2-trifluoroethyl)cyclopropanecarboxamide] showed an EC50 of 50.1 nM.
